Laboratory results taken from patent publication US11453660B2, “Androgen receptor and glucocorticoid receptor modulators” (ONCOSTELLAE, S.L., priority 2017, dated 2022).
Positions count from the first letter of the chain named.

Assays:
Rat Androgen Receptor = target: T1, Rat Androgen Receptor (Rattus norvegicus, UniProt P15207); test: Rat Androgen Receptor Binding (polarscreen AR competitor assay, fluorescence polarization); conditions: displacement of Fluormone AL Green, 4 hours at RT, read-out: AR rat-fluorimetric
T1 construct: purchased Life Technologies A15880
T1 sequence (P15207 646-902 limits assumed): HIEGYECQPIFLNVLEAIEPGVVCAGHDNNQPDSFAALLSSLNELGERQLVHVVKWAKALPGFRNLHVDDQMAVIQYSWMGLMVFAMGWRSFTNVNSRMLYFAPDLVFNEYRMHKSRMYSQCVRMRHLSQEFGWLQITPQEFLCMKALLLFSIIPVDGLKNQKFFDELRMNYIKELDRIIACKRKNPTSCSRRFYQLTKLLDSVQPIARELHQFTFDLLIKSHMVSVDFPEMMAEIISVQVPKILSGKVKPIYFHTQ
Method in brief: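 Fluorescence-polarization competition of Fluormone AL Green binding to rat androgen receptor; compounds screened in duplicate at 1 and 10 μM, 4 h at RT, read at λexc 485/λem 535 nm. IC50 from 1:10 dilution series, 10 μM to 0.1 nM, in 1× buffer.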

human androgen receptor = target: T2, human androgen receptor (Homo sapiens, UniProt P10275, T878A); test: Human Androgen Receptor Binding (radioligand binding, LnCap prostate cancer cell line); conditions: LnCap cells, displacement of [^3H]-methyltrienolone, 2 hours at 37° C.; read-out: AR LNCaP
T2 construct: endogenously expressed human androgen receptor using the LnCap prostate cancer cell line; endogenous in cells; host or cells: LNCaP prostate cancer cell line (whole cells)
T2 sequence (P10275 1-920 T878A): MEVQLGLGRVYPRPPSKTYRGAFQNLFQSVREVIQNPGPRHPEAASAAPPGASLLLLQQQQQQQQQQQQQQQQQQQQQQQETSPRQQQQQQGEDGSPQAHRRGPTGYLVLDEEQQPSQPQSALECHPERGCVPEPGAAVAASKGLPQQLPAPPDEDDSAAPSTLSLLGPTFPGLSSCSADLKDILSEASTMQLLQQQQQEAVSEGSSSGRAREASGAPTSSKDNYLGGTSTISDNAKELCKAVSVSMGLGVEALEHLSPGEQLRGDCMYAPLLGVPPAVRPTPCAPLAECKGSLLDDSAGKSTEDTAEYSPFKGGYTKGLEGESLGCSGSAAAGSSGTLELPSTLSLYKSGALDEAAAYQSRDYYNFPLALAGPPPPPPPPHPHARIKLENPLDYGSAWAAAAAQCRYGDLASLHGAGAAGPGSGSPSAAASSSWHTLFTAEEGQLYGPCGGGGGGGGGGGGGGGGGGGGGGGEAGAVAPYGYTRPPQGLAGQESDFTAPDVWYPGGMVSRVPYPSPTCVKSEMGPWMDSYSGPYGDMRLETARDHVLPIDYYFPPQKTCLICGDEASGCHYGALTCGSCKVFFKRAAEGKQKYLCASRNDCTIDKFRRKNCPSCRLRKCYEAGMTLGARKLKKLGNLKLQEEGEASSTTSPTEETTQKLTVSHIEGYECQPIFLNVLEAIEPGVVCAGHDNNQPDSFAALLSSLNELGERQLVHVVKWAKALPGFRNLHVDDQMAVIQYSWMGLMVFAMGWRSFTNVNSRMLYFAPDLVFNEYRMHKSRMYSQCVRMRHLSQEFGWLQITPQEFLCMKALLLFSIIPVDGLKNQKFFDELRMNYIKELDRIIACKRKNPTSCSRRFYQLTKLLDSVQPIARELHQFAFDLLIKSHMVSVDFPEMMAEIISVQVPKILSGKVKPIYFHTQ
Method in brief: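 Whole-cell displacement of [3H]-methyltrienolone from endogenous AR (T878A) in LnCap cells, in RPMI with 0.1% BSA and triamcinolone acetonide. Compounds 10 μM to 0.1 nM in 1:10 steps, 2 h at 37 °C; cells washed, SDS-lysed, bound radioactivity by scintillation counting for IC50.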

AR-Receptor = target: T3, AR-Receptor (Homo sapiens, UniProt P10275); test: Functional Assay AR-Receptor (MDA-MB-453 cells, luciferase); assay type: cell-based; conditions: antagonist effect in the presence of DHT 1 nM, 24 h, luciferase luminescence, read-out: AR antag KB
T3 sequence (P10275 1-920 Q868H): T2 sequence (P10275 1-920 T878A) with Q868H, A878T
Procedure: Functional Assay AR-Receptor
MDA-MB-453 cells were cultured in DMEM (ATCC, ref 30-2002), 10% FBS, 1% penicillin, 1% streptomycin, 75 μg/ml gentamycin.
The day before performing assay, the cells were trypsinized and seeded in a 384-well plate (Greiner, ref 781098) (8000 cells/well) in 50 μl of complete culture medium. Cells were stores at 37° C. in a 5% CO2 atmosphere overnight.
The medium was replaced by 50 μl complete growth medium with 0.1% FBS. Compounds were dispensed with Echo 550 (Labcyte) and incubated for 24 h at 37° C. in a 5% CO2 atmosphere. Antagonist effect was measured in the presence of DHT 1 nM.
After incubation, assay medium removed and 20 μl of 1× Promega lysis buffer were added to each well. The plate was incubated 15 minutes at RT and quick-frozen to −80° C. and the thaw to room temperature. 50 μl of luciferase substrate (E4550, Promega) were added to each well and luminescence (integration time 1000 msec) was read in an EnSpire multilabel reader (Perkin Elmer).

Row | SMILES | IC50 (Rat Androgen Receptor) | IC50 (human androgen receptor) | Kb (AR-Receptor)
1 | CC(=O)C1=C(C)NC(C)=C(C(=O)OCc2ccncc2)C1c1csc2ccccc12 (centres unmarked) [Example B12, Pyridin-4-ylmethyl 5-acetyl-4-(benzo[b]thiophen-3-yl)-2,6-dimethyl-1,4-dihydropyridine-3-carboxylate] | ≥ 1000 nM | ≥ 1000 nM | < 100 nM
2 | CC(=O)C1=C(C)NC(C)=C(C(=O)OCC2CCCCC2)C1c1csc2ccccc12 (centres unmarked) [Example B21, Cyclohexylmethyl 5-acetyl-4-(benzo[b]thiophen-3-yl)-2,6-dimethyl-1,4-dihydropyridine-3-carboxylate] | 100 to 1000 nM | ≥ 1000 nM | 100 to 1000 nM

Results, then the compound that gave them:

Row | IC50 (Rat Androgen Receptor) | IC50 (human androgen receptor) | Kb (AR-Receptor) | SMILES
3 | ≥ 1000 nM | – | 100 to 1000 nM | CC(=O)C1=C(C)NC(C)=C(C(=O)OCCc2ccccc2)C1c1csc2ccccc12 (centres unmarked) [Example C10, Phenethyl 5-acetyl-4-(benzo[b]thiophen-3-yl)-2,6-dimethyl-1,4-dihydropyridine-3-carboxylate]
4 | 100 to 1000 nM | – | 100 to 1000 nM | CC(=O)C1=C(C)NC(C)=C(C(=O)Cc2ccccc2)C1c1csc2ccccc12 (centres unmarked) [Example C52, 1-(5-acetyl-4-(benzo[b]thiophen-3-yl)-2,6-dimethyl-1,4-dihydropyridin-3-yl)-2-phenylethan-1-one]
5 | – | ≥ 1000 nM | 100 to 1000 nM | CC(=O)C1=C(C)NC(C2CC2)=C(C(=O)OCc2ccncc2)C1c1csc2ccccc12 (centres unmarked) [Example J32, Pyridin-4-ylmethyl 5-acetyl-4-(benzo[b]thiophen-3-yl)-2-cyclopropyl-6-methyl-1,4-dihydropyridine-3-carboxylate]
6 | – | 100 to 1000 nM | 100 to 1000 nM | CC(=O)C1=C(C)NC(C)=C(C(=O)OCc2ccncc2)C1c1csc2c(Br)cccc12 (centres unmarked) [Example J33, Pyridin-4-ylmethyl 5-acetyl-4-(7-bromobenzo[b]thiophen-3-yl)-2,6-dimethyl-1,4-dihydropyridine-3-carboxylate]
